Experimental data as given in patent US20080287531A1, “Preventive and/or Therapeutic Agent for Sleeping Disorder” (Kyowa Hakko Co., Ltd., priority 2004, published 2008).
Several values for one entry are separate records, joined by “and”; a condition that tells them apart may be missing. Identical values can stand only once. Entries after “also recorded” stand apart in the source; their conditions may differ. Counter-ions that a name gives are not always drawn.

Assays:
[1] = tested on: nasal congestion of allergic rhinitis; details: Phase III test, Non-patent Document 7; cited from earlier work
[2] = tested on: nasal congestion reaction; details: guinea pigs, experimental allergic rhinitis model, Non-patent Document 8; cited from earlier work
[3] = tested on: patients with sleep apnea syndrome / sleeping disorder; test: Polysonography (PSG) before and after administration of olopatadine hydrochloride; type: in vivo, human; details: for AI After therapy: apnea index by PSG; for AHI After therapy: apnea-hypopnea index by PSG; for Arousals Index After therapy: arousals index per hour by PSG
Protocol: (§1) Olopatadine hydrochloride was orally administered at a dose of 10 mg/day [a 5-mg tablet of Allelock (registered trademark: Kyowa Hakko Kogyo Co., Ltd.) was administered everyday, twice a day, with one tablet for each administration] to three patients (patient Nos. 1 to 3) with sleep apnea syndrome complicated by allergic rhinitis and seven patients (patient Nos. 4 to 10) with sleeping disorder which is not complicated by allergic rhinitis including four patients (patient Nos. 4 to 6 and 8) with sleep apnea syndrome which is not complicated by allergic rhinitis. Before and after the administration of olopatadine hydrochloride, an apnea-hypopnea index (AHI), an apnea index (AI) and an arousals index per hour were measured respectively by polysonography (PSG) for each patient. Further, before and after the administration of olopatadine hydrochloride, a test for daytime Epworth sleepness scale was performed according to the following.
The presence or absence of allergic rhinitis was confirmed by performing RAST (radioallergosorbent test) for 12 types of antigens [house dust, Dermatophagoides pteronyssinus, Japanese cedar, Hinoki cypress, Japanese alder, ragweed, mugwort, goldenrod, Cocksfoot (Dactylis glomerata), Candida albicans, mold and animal epithelium].
The patients uncomplicated by allergic rhinitis had airway obstruction caused by non-atopic rhinitis.

[4] = tested on: patients with sleep apnea syndrome / sleeping disorder; test: Daytime Epworth sleepness scale (ESS) test; type: in vivo, human; details: total of 8 conditions, 10 points or less is normal, oral 10 mg/day
Protocol: as §1
In the following conditions 1 to 8, sleepiness was determined according to the next four levels, and seriousness of daytime sleepiness was evaluated by the total (ESS) of the points. A case in which ESS is 10 points or less is evaluated as normal.
2 points=sometimes sleeps
1. when sitting and reading a book
2. when watching television
3. when sitting in a public place without movement (for example, in a theater or a conference room) […]

[5] = tested on: patients with sleep apnea syndrome / sleeping disorder; test: Estimation of effect on chief-complaint symptoms (snore, apnea, daytime sleepiness); type: in vivo, human; details: for Estimation of effect: oral 10 mg/day
Protocol: as §1
The effect of the agent was estimated according to the following standard.
Incidentally, as objective assessment, improved conditions in values of AHI, AI, arousals index and ESS were used for reference.

[6] = oral 10 mg/day, 74-160 days, one line per patient (Nos. 4-10), sleeping disorder not complicated by allergic rhinitis
[7] = oral 10 mg/day, 160-342 days, one line per patient (Nos. 1-3), sleep apnea syndrome complicated by allergic rhinitis

Compound | Effect on nasal congestion of allergic rhinitis [1] | Action on nasal congestion reaction [2] | AI After therapy [3, 6] | AI After therapy [3, 7] | AHI After therapy ([3]; oral 10 mg/day (5-mg tablet twice a day), 160-342 days, one line per patient (Nos. 1-3), sleep apnea syndrome complicated by allergic rhinitis) | AHI After therapy [3, 6] | Arousals Index After therapy [3, 6] | Arousals Index After therapy [3, 7] | ESS After therapy ([4]; 74-160 days, one line per patient (Nos. 4-10), not complicated by allergic rhinitis) | ESS After therapy ([4]; 160-342 days, one line per patient (Nos. 1-3), complicated by allergic rhinitis) | Estimation of effect ([5]; 74-160 days, one line per patient (Nos. 4-10), sleeping disorder not complicated by allergic rhinitis) | Estimation of effect ([5]; 160-342 days, one line per patient (Nos. 1-3), sleep apnea syndrome complicated by allergic rhinitis) | Clinical effect on symptoms of sleeping disorder ([5]; patients with sleep apnea syndrome complicated by allergic rhinitis, snore, apnea, hypopnea, arousals, daytime sleepiness) | Clinical effect on symptoms of sleeping disorder ([5]; patients with sleeping disorder not complicated by allergic rhinitis, snore, apnea, hypopnea, arousals, daytime sleepiness, morning headache) | Clinical effect on symptoms of sleeping disorder ([5]; regardless of the presence or absence of complication by allergic rhinitis)
CN(C)CC/C=C1/c2ccccc2COc2ccc(CC(=O)O)cc21 [compound 1, (Z)-11-(3-dimethylaminopropylidene)-6,11-dihydrodibenzo[b,e]oxepine-2-acetic acid] | highly improve the nasal congestion of allergic rhinitis | inhibitory action on a nasal congestion reaction |  |  |  |  |  |  |  |  |  |  |  |  | 
CN(C)CC/C=C1/c2ccccc2COc2ccc(CC(=O)O)cc21 [olopatadine hydrochloride] |  |  | 3.4 and 1.2 and 3.1 and 0.8 (2×) and 0.4 and 2.8 | 4.3 and 1.5 and 7.6 | 5.8 and 2.7 and 11.1 | 4.2 and 2.6 and 4.5 and 1.3 and 0.9 and 1.8 and 3.4 | 5.9 and 2.6 and 5.3 and 2.3 and 1.8 and 2.1 and 4.9 | 10.3 and 4.4 and 18.9 | 11 points and 10 points (2×) and 8 points and 9 points (2×) and 12 points | 12 points and 11 points and 9 points | Improved; also recorded: Markedly | Improved; also recorded: Markedly | improves symptoms of sleeping disorder | improves symptoms of sleeping disorder | improves symptoms of sleeping disorder
